{"source": "patent US11591297B2", "about": "“Compound having PD-L1 expression-suppressing action” (TOHOKU UNIVERSITY, priority 2019, dated 2023)", "test_system": "human IL-2 promoter", "assay": "IL-2luc activity (luciferase under control of IL-2 promoter) of Jurkat cells co-cultured with IFN-γ-treated A549 cells", "type": "cell-based", "details": "control (DMSO) IFN-γ(−) defined as 100%, control IFN-γ(+) 54.5", "experimental": "The pIL-2luc obtained by the insertion of a human IL-2 promoter sequence (−945 to 53) into the multiple cloning site of pGL-3 vector basic (Promega) was preliminarily transfected into Jurkat cells. PMA and PHA-L were added into the Jurkat cells and the cells were pre-cultured. Simultaneously, IFN-γ was added into A549 cells and the cells were pre-cultured. The supernatants of each culture liquid at the time of the pre-culture of each cell were removed, the culture liquids were co-cultured in new medium. The luciferase activity of the co-cultured Jurkat cells was measured. Each test compound was added into the A549 cell culture liquid during the pre-culture.\nA549 cells were suspended in DMEM medium at a concentration of 3×10^5 cells/mL to prepare a suspension, and the suspension was dispensed into a T25 flask in an amount of 5 mL and cultured\nSeparately, 5 μg of pIL-2luc DNA and 15 μL of TransIT-Jurkat reagent (Takara Bio: Cat #V2124) were added into 500 μL of serum-free medium, and the medium was allowed to stand at room temperature for 15 minutes. […]\nLAS in Luciferase Assay System was dissolved in LAB to prepare a luciferase reagent. 10 μL of the sample was mixed with 50 μL of the luciferase reagent, and the chemiluminescence (Relative Luminescence Intensity: RLU) of the sample was measured using GloMax20/20 (Promega). […]"}
{"smiles": "O=C(Nc1ccc(Oc2ccc(S(F)(F)(F)(F)F)cc2)cc1)C1CCCN(C(=O)c2ccc([N+](=O)[O-])cc2)C1", "note": "(centres unmarked) [Example 5, 1-(4-Nitrobenzoyl)-N-(4-(4-(pentafluorosulfanyl)phenoxy)phenyl)piperidine-3-carboxamide]", "values": [{"measurement": "activity at 0.5 µM", "setting": "0.5 μM", "value": 63.5, "unit": "%"}, {"measurement": "activity at 1 µM", "setting": "1 μM", "value": 85.9, "unit": "%"}]}
